Measurements as given in patent US20100204117A1, “CGRP AS A THERAPEUTIC AGENT” (priority 2008, published 2010).
No end group written: not given here.

Key:
HCMV strain AD169 = assay: HCMV plaque formation assay in MRC-5 cells
HIV-1IIIB = assay: HIV-1 antiviral assay in CEM-SS cells (MTS readout); format: cell-based
HUVEC = assay: Endothelial tube formation assay; format: cell-based, human; conditions: 10 micrograms per ml, 20 hours
[1] = test system: Primary Human endothelial cells (HUVEC); assay: Endothelial cell migration assay; format: cell-based; conditions: 10 micrograms per ml, 22 hours
[2] = test system: hepatitis B virus (HBV) ayw strain; assay: HBV assay in HepG2-2.2.15 cells (secreted HBV DNA, TaqMan PCR); format: cell-based; conditions: 10 micrograms per ml, six days
spleen cells = assay: Th1/Th2 cytokine profiling assay (Ovalbumin-restimulated spleen cells, CBA kit); format: cell-based, Balb/c mice; conditions: 10 micrograms per ml; Ovalbumin restimulation; 72 hours
Description: The Balb/c mice (originated in 1923, it is a popular strain and is used in many different research disciplines. […] On day 50, spleens of the mice were harvested (3 weeks after last boost with Ovalbumin). […] Thereafter, additional Ovalbumin was added to the cells at 10 micrograms/ml for in vitro restimulation of the cells. 72 hours later, cell supernatants were harvested and assayed using the Becton Dickinson Mouse Th1/Th2 Cytokine CBA Kit. This kit can be used to measure Interleukin-2 (IL-2), Interleukin-4 (IL-4), Interleukin-5 (IL-5), Interferon-γ (IFN-γ), and Tumor Necrosis Factor-α (TNF-α) protein levels in a single sample. The kit performance has been optimized for analysis of physiologically relevant concentrations ([…] levels) of specific cytokine proteins in tissue culture supernatants and serum samples.

`Nc1nc(O)c2ncn(COC(CO)CO)c2n1` [Ganciclovir, reference compound] was tested, and the “antiviral activity of positive control compound (HCMV)” value (HCMV strain AD169; positive control) was “expected levels of antiviral activity”.

`Cc1cn([C@H]2C[C@H](N=[N+]=[N-])[C@@H](CO)O2)c(=O)[nH]c1=O` [AZT] was tested, and the “antiviral activity of positive control compounds (HIV-1)” value (HIV-1IIIB) was “expected levels of antiviral activity”.

“Ala-Cys-Asn-Thr-Ala-Thr-Cys-Val-Thr-His-Arg-Leu-Ala-Gly-Leu-Leu-Ser-Arg-Ser-Gly-Gly-Met-Val-Lys-Ser-Asn-Phe-Val-Pro-Thr-Asn-Val-Gly-Ser-Lys-Ala-Phe-NH2 (ACNTATCVTHRLAGLLSRSGGMVKSNFVPTNVGSKAF-NH2; ends and bridges not checked) [peptide 1, beta Calcitonin Gene-Related Peptide, commercially available known peptide]” was tested, and the “inhibition of the tube formation of human endothelial cells” value (HUVEC) was 12%, the “inhibition of the migration of human endothelial cells” value [1] was “did not inhibit” and the “inhibition of HBV replication as compared to the virus control infection” value [2] was 19.3%. For the same compound, the “inhibition of HCMV plaque formation as compared to the virus control experiment” value (HCMV strain AD169; 10 micrograms per ml, 7-10 days) was “did not show any inhibition”, the “IFNγ spleen cells; TH1 response (% of control)” value (spleen cells) was 31.9 % of control and the “IL-2 spleen cells (% of control)” value (spleen cells) was 104.8 % of control. The “IL-4 spleen cells; TH2 response (% of control)” value (spleen cells) was 90.3 % of control, the “IL-5 spleen cells; TH2 response (% of control)” value (spleen cells) was 40.1 % of control and the “TNF-a spleen cells; TH1 response (% of control)” value (spleen cells) was 84.0 % of control.

`CC(C)(C)NC(=O)[C@@H]1CN(Cc2cccnc2)CCN1C[C@@H](O)C[C@@H](Cc1ccccc1)C(=O)N[C@H]1c2ccccc2C[C@H]1O` [indinavir] was tested, and the “antiviral activity of positive control compounds (HIV-1)” value (HIV-1IIIB) was “expected levels of antiviral activity”.
